The values that follow come from patent publication US10253038B2, “Fusicoccane derivatives and methods” (Florida State University Research Foundation, Inc., priority 2017, dated 2019).

A word on the melting point: it is the temperature, or range, at which the solid turns liquid. Usually EC50 stands for the concentration needed to bring the measured effect to its halfway point.

For data set [1], the target named is T1, 14-3-3σ•Task-3 ctp interaction (Homo sapiens, UniProt P31947).
T1 construct: made in house; host or cells: E. coli BL21
T1 sequence (P31947 whole entry, other chains not shown): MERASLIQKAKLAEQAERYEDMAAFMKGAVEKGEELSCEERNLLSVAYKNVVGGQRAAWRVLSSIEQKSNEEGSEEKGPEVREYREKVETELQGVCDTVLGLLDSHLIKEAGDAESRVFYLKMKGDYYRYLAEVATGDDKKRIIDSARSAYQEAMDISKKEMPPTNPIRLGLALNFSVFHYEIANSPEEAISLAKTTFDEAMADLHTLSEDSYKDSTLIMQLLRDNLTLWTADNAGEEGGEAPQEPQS
Nature of the data set: Fluorescence polarization (FP) of fluorescein-labeled Task-3 ctp titrated with 14-3-3σ. Conditions: for screen for functional interaction with 14-3-3σ•Task-3 ctp complex (result in words): library screen of 8a-j, 9-11, FIG. 3. It is filed as binding. As to the method: (§1) Replicated in this example was Ottmann's characterization of interactions between 14-3-3σ and a synthetic hexapeptide of Task-3 containing the putative C-terminal 14-3-3-interaction motif KRRK-pS-V (Task-3 ctp). (Anders, C. et al., Chem. Biol. 2013, 13, 583-593).
(§2) Recombinant human 14-3-3σ was prepared using a bacterial expression protocol, which routinely produced 15 mg/L of purified protein. Recombinant 14-3-3σ was expressed in BL21 E. Coli cells and purified by Ni-affinity chromatography.
The titration protocol was adapted to 96-well plate format using fluorescence polarization (FP) experiments. FP measurements of fluorescein-labeled Task-3 ctp, in the absence and presence of 100 μM fusicoccin A (1), titrated with 14-3-3σ were used to obtain the apparent Kd of the 14-3-3σ•Task-3 ctp interaction. […] Also collected were FP measurements of fluorescein-labeled c-Raf peptide, in the absence and presence of 100 μM fusicoccin A (1), titrated with 14-3-3σ to obtain the apparent Kd of the 14-3-3σ•c-Raf peptide interaction.
Error bars indicate the mean±SD of three independent experiments.
In view of the foregoing control data, a library of synthetic derivatives, including 8a-j, 9-11, was screened for functional interactions 14-3-3σ•Task-3 ctp complex. […]
For orientation: Polarisation of emitted light reports the rotation of a fluorescent probe.

In another data set the test system is 14-3-3•PMA2 complex. The note with it: background statement; cited from earlier work.
A further data set addresses T2, 14-3-3σ•Task-3 ctp (Homo sapiens, UniProt P31947).
T2 construct: made in house; host or cells: E. coli BL21
Put plainly: Isothermal titration calorimetry (ITC) of Task-3 ctp with 14-3-3σ in the presence and absence of fusicoccin A. It is filed as binding. Conditions: 100 μM fusicoccin A vs absence. The protocol: as §1, §2
This was determined by the association of ITC binding isotherms for Task-3 ctp with 14-3-3σ in the presence and absence of 100 μM of fusicoccin A (1).
In general terms: In ITC the heat of successive injections is recorded.

T2 sequence (P31947 whole entry, other chains not shown): as above

Consider `O=C1CCC2=C1[C@@]1(CN3CCOCC3)C=C[C@]3(CCC[C@H]3C2)O1` [compound 8f], for which, in data set [1] (FP, DMSO (10%) in buffer, 6.3 mM compound), the “fold enhancement of apparent affinity of Task-3 ctp to 14-3-3σ” value (from here on “fold enhancement”) stood at 1.1 fold. Besides, the “screen for functional interaction with 14-3-3σ•Task-3 ctp complex (result in words)” value in data set [1] was “increase the apparent affinity”.

As to `CC1CC(=O)C2C3C=CC4(CCCC4CC12)O3` (racemic) [compound 9, (±)-9-Methyl-1,2,3,6,6a,8,9,9a, 10,10a-decahydro-7H-3a,6-epoxydicyclopenta[a,d] [8]annulen-7-one], the melting point was 88.9 to 91.3 °C.

On to `C=C(C)C1=C2[C@H]3C=C[C@]4(CCC[C@H]4C[C@@]2(C)CC1)O3` (racemic) [compound 11], for which, in data set [1] (FP, DMSO (10%) in buffer, 1.6 mM compound), the “fold enhancement” value turned out to be 1.2 fold. The “screen for functional interaction with 14-3-3σ•Task-3 ctp complex (result in words)” value in data set [1] is reported as “increase the apparent affinity”.

Take `C=CC(C)(C)OC[C@H]1O[C@H](O[C@@H]2C3=C([C@H](C)COC(C)=O)C[C@H](O)[C@]3(C)/C=C3/[C@@H](COC)CC[C@H]3[C@@H](C)[C@H]2O)[C@H](O)[C@@H](OC(C)=O)[C@@H]1O` [fusicoccin A, reference compound]: the “prolongation of the lifetime of the 14-3-3•PMA2 complex” value in the data set on 14-3-3•PMA2 complex is recorded as 90 fold. In data set [1] (FP, 100 μM fusicoccin A), the “fold enhancement” value was determined as 37 fold. For the same compound, the 50% effective concentration (EC50) in data set [1] (FP, fluorescein-labeled Task-3 ctp and 14-3-3σ titrated with compound, mean±SD of three experiments, read-out: EC50 of stabilization of the 14-3-3σ•Task-3 ctp complex) is 1400 ± 300 nM. In addition, the “fold stabilization of 14-3-3σ•Task-3 ctp” value on 14-3-3σ•Task-3 ctp was determined as 152 fold.

`O=C1CCC2=C1[C@H]1C=C[C@]3(CCC[C@H]3C2)O1` (racemic) [compound 8a, (±)-1,2,3,6,8,9,10,10a-octahydro-7H-3a,6-epoxydicyclopenta[a,d] [8]annulen-7-one]: the melting point was in the range of 50.8 to 51.3 °C.
